In patent US9422312B2, “Azabenzimidazole derivatives” (Boehringer Ingelheim International GmbH, priority 2014, dated 2016):

Target: Activated AMPK complex 1 (containing alpha1beta1gamma1) (Homo sapiens (Human), UniProt Q13131+Q9Y478)
Experiment: in vitro AMPK activation assay (ADP-Glo Kinase Assay)
Type: biochemical
Conditions: 1 μM peptide substrate, 30 μM ATP, 60 min, room temperature, luminescence
From the text: Activated AMPK complex 1 (containing alpha1beta1gamma1) was obtained from baculovirus expression system. The gene encoding AMPK alpha1 was cloned into the pACG2T vector (BD Biosciences) to obtain a N-terminal Glutathion S transferase (GST)-fusion protein. The genes encoding AMPK beta 1 and gamma1 were cloned into the p2Bac dual multiple cloning site vector (Invitrogen) with beta1 under the control of the p10 promoter and gamma1 under the control of the PH promoter. The transfer vectors containing AMPK were co-transfected individually with AcPNV BacMagic-3 DNA (EMD Millipore) in Sf9 cells and the recombinant baculoviruses were harvested after 5 days, followed by 3 rounds of amplification of the virus stock in Sf9 cells. AMPK (alpha1beta1gamma1) was expressed in High Five 5 cells by co-infection of recombinant alpha1 virus and recombinant beta1/gamma1 virus for 72 h at 27° C. Cells were harvested by centrifugation and lysed by 3 freeze/thaw cycles in PBS with 10% glycerol and protease inhibitor cocktail (Roche). After centrifugation AMPK a1b1g1 in the supernatant was captured by immobilized glutathione (GE Healthcare), impurities were washed away with PBS and AMPK alpha1beta1gamma1 was eluted with PBS containing 20 mM reduced gluthathione. The protein buffer was then exchanged to PBS with 10% glycerol and protein concentration was determined by UV absorbance.
The white 384-well Optiplates (cat. no. 6007299) were purchased from PerkinElmer. The V9101 ADP-Glo Kinase Assay and ultra pure ATP (V915A) was purchased from Promega. The substrate for AMPK (NH2-HMRSAMSGLHLVKRR_CONH2) was purchased from Upstate (12-355).
Compounds were tested in either serial dilutions or single dose concentrations. The serial compound dilutions were prepared in 100% DMSO automatically. The final DMSO concentration in the assay was 0.1%.
The Compound Stock Solutions were 10 mM in 100% DMSO. The compounds were solubilised at room temperature.
In the 384-well plates 1.25 ul of test compound in assay buffer was mixed with 1.25 ul of AMPK and 1.25 μl of the peptide (final concentration of 1 μM) and 1.25 μl of ATP (final concentration of 30 μM), both dissolved in assay buffer. This step was followed by an incubation time of 60 min. Then 5 μl of ADP Glo Reagent was added. This was followed by 40 min of incubation. Then 10 μl of Kinase Detection Reagent was admixed. The plates were sealed and after an incubation period of 30 min, the luminescence signal was measured in an Envision reader. All incubation steps were accomplished at room temperature.
Each assay microtiter plate contained wells with vehicle controls instead of compound (0.1% DMSO in water) as reference for the low signal (100% CTL, low signal), and wells with serial dilutions of AMP (final 30 μM) as reference for high signals.
The luminescence signal generated was proportional to the ADP concentration produced and was correlated with AMPK activity. The analysis of the data was performed by the calculation of the percentage of ATP consumption of AMPK in the presence of the test compound compared to the consumption of ATP in the presence of AMPK without compound. (RLU(sample)/RLU(low control))*100[RLU=relative luminescence units]
An activator of the AMPK enzyme gave values above 100% CTL.
EC50 values based on dose response curves are calculated with the XIFIT software using the 4 Parameter Logistic Model or Sigmoidal Dose-Response Model.

Chain of Activated AMPK complex 1 (containing alpha1beta1gamma1) (Q13131 whole entry): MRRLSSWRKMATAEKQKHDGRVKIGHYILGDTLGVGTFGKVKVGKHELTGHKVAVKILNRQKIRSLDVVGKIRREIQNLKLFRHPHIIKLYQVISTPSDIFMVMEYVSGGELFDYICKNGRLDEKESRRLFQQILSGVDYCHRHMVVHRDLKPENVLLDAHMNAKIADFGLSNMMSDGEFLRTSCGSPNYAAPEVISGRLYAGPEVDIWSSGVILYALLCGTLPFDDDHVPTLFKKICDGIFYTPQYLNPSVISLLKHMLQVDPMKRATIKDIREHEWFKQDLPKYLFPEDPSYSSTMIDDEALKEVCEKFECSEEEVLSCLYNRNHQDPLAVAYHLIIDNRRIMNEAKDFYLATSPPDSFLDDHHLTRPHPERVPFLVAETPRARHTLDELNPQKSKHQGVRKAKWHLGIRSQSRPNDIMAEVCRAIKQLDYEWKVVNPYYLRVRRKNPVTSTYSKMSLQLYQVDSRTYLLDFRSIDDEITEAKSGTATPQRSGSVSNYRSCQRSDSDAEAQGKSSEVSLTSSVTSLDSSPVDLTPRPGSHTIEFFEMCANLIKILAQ
Chain of Activated AMPK complex 1 (containing alpha1beta1gamma1) (Q9Y478 whole entry): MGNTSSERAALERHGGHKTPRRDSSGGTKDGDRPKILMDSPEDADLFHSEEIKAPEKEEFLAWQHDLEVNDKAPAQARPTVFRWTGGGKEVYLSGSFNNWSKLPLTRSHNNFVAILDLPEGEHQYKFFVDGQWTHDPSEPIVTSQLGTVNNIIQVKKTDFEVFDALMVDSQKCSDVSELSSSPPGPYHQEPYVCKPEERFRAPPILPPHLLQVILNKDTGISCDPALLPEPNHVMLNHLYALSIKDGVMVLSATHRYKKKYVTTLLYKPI
Chain of Activated AMPK complex 1 (containing alpha1beta1gamma1) (P54619 whole entry partner): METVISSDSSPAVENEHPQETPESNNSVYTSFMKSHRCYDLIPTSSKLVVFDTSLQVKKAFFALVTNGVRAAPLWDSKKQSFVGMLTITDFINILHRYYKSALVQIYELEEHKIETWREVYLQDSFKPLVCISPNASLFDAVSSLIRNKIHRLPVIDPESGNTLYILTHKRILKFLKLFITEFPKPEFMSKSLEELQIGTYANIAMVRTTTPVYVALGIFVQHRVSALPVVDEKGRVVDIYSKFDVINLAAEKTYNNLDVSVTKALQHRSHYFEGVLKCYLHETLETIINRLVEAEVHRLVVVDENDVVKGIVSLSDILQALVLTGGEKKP

Compound	EC50 [µM]
CN(C)S(C)(=O)=Nc1ccc(-c2ccc(-c3nc4[nH]c(O[C@@H]5CO[C@H]6[C@@H]5OC[C@H]6O)nc4cc3Cl)cc2)cc1 (stereo partly drawn) [Example 1, N′-{4-[4-(2-{[(3R,3aR,6R,6aR)-6-Hydroxy-hexahydrofuro[3,2-b]furan-3-yl]oxy}-6-chloro-3H-imidazo[4,5-b]pyridin-5-yl)phenyl]phenyl}-N,N-dimethyl-methanesulfonimidamide]	0.026
CNS(C)(=O)=Nc1ccc(-c2ccc(-c3nc4[nH]c(O[C@@H]5CO[C@H]6[C@@H]5OC[C@H]6O)nc4cc3Cl)cc2)cc1 (stereo partly drawn) [Example 2, N′-{4-[4-(2-{[(3R,3aR,6R,6aR)-6-Hydroxy-hexahydrofuro[3,2-b]furan-3-yl]oxy}-6-chloro-3H-imidazo[4,5-b]pyridin-5-yl)phenyl]phenyl}-N-methyl-methanesulfonimidamide]	0.02
CC(C)NS(C)(=O)=Nc1ccc(-c2ccc(-c3nc4[nH]c(O[C@@H]5CO[C@H]6[C@@H]5OC[C@H]6O)nc4cc3Cl)cc2)cc1 (stereo partly drawn) [Example 3, N′-{4-[4-(2-{[(3R,3aR,6R,6aR)-6-Hydroxy-hexahydrofuro[3,2-b]furan-3-yl]oxy}-6-chloro-3H-imidazo[4,5-b]pyridin-5-yl)phenyl]phenyl}-N-(propan-2-yl)-methanesulfonimidamide]	0.094
CCN(C)S(C)(=O)=Nc1ccc(-c2ccc(-c3nc4[nH]c(O[C@@H]5CO[C@H]6[C@@H]5OC[C@H]6O)nc4cc3Cl)cc2)cc1 (stereo partly drawn) [Example 4, N′-{4-[4-(2-{[(3R,3aR,6R,6aR)-6-Hydroxy-hexahydrofuro[3,2-b]furan-3-yl]oxy}-6-chloro-3H-imidazo[4,5-b]pyridin-5-yl)phenyl]phenyl}-N-ethyl-N-methyl-methanesulfonimidamide]	0.052
CS(=O)(=Nc1ccc(-c2ccc(-c3nc4[nH]c(O[C@@H]5CO[C@H]6[C@@H]5OC[C@H]6O)nc4cc3Cl)cc2)cc1)N1CCC1 (stereo partly shown) [Example 5]	0.015
CS(=O)(=Nc1ccc(-c2ccc(-c3nc4[nH]c(O[C@@H]5CO[C@H]6[C@@H]5OC[C@H]6O)nc4cc3Cl)cc2)cc1)N1CCCC1 (stereo partly drawn) [Example 6, (3R,3aR,6R,6aR)-6-({6-Chloro-5-[4-(4-{[methyl(oxo)pyrrolidin-1-yl-λ^6-sulfanylidene]-amino}phenyl)phenyl]-3H-imidazo[4,5-b]pyridin-2-yl}oxy)hexahydrofuro[3,2-b]furan-3-ol]	0.054
CS(=O)(=Nc1ccc(-c2ccc(-c3nc4[nH]c(O[C@@H]5CO[C@H]6[C@@H]5OC[C@H]6O)nc4cc3Cl)cc2)cc1)NC1CCC1 (stereo partly drawn) [Example 7, N-{4-[4-(2-{[(3R,3aR,6R,6aR)-6-Hydroxy-hexahydrofuro[3,2-b]furan-3-yl]oxy}-6-chloro-3H-imidazo[4,5-b]pyridin-5-yl)phenyl]phenyl}-N′-cyclobutyl-methanesulfonimidamide]	0.037
CCNS(C)(=O)=Nc1ccc(-c2ccc(-c3nc4[nH]c(O[C@@H]5CO[C@H]6[C@@H]5OC[C@H]6O)nc4cc3Cl)cc2)cc1 (stereo partly drawn) [Example 8, N-{4-[4-(2-{[(3R,3aR,6R,6aR)-6-Hydroxy-hexahydrofuro[3,2-b]furan-3-yl]oxy}-6-chloro-3H-imidazo[4,5-b]pyridin-5-yl)phenyl]phenyl}-N′-ethyl-methanesulfonimidamide]	0.061
CS(=O)(=Nc1ccc(-c2ccc(-c3nc4[nH]c(O[C@@H]5CO[C@H]6[C@@H]5OC[C@H]6O)nc4cc3Cl)cc2)cc1)NC1CC1 (stereo partly drawn) [Example 9, N-{4-[4-(2-{[(3R,3aR,6R,6aR)-6-Hydroxy-hexahydrofuro[3,2-b]furan-3-yl]oxy}-6-chloro-3H-imidazo[4,5-b]pyridin-5-yl)phenyl]phenyl}-N′-cyclopropyl-methanesulfonimidamide]	0.089
CN(C)S(C)(=O)=Nc1ccc(-c2ccc(-c3nc4[nH]c(O[C@@H]5CO[C@H]6[C@@H]5OC[C@H]6O)nc4cc3Cl)cc2)nc1 (stereo partly drawn) [Example 10, N′-{6-[4-(2-{[(3R,3aR,6R,6aR)-6-Hydroxy-hexahydrofuro[3,2-b]furan-3-yl]oxy}-6-chloro-3H-imidazo[4,5-b]pyridin-5-yl)phenyl]pyridin-3-yl}-N,N-dimethyl-methanesulfonimidamide]	0.017
CNS(C)(=O)=Nc1ccc(-c2ccc(-c3nc4[nH]c(O[C@@H]5CO[C@H]6[C@@H]5OC[C@H]6O)nc4cc3Cl)cc2)nc1 (stereo partly drawn) [Example 11, N′-{6-[4-(2-{[(3R,3aR,6R,6aR)-6-Hydroxy-hexahydrofuro[3,2-b]furan-3-yl]oxy}-6-chloro-3H-imidazo[4,5-b]pyridin-5-yl)phenyl]pyridin-3-yl}-N-methyl-methanesulfonimidamide]	0.062
CN(C)S(=N)(=O)c1ccc(-c2ccc(-c3nc4[nH]c(O[C@@H]5CO[C@H]6[C@@H]5OC[C@H]6O)nc4cc3Cl)cc2)cc1 (stereo partly drawn) [Example 12, 4-[4-(2-{[(3R,3aR,6R,6aR)-6-Hydroxy-hexahydrofuro[3,2-b]furan-3-yl]oxy}-6-chloro-3H-imidazo[4,5-b]pyridin-5-yl)phenyl]-N,N-dimethyl-benzenesulfonimidamide]	0.002
CN(C)S(C)(=O)=Nc1cnc(-c2ccc(-c3nc4[nH]c(O[C@@H]5CO[C@H]6[C@@H]5OC[C@H]6O)nc4cc3Cl)cc2)nc1 (stereo partly drawn) [Example 13, N′-{2-[4-(2-{[(3R,3aR,6R,6aR)-6-hydroxy-hexahydrofuro[3,2-b]furan-3-yl]oxy}-6-chloro-3H-imidazo[4,5-b]pyridin-5-yl)phenyl]pyrimidin-5-yl}-N,N-dimethyl-methanesulfonimidamide]	0.03
N=S1(=O)CCCN1Cc1ccc(-c2ccc(-c3nc4[nH]c(O[C@@H]5CO[C@H]6[C@@H]5OC[C@H]6O)nc4cc3Cl)cc2)cc1 (stereo partly drawn) [Example 14, 2-({4-[4-(2-{[(3R,3aR,6R,6aR)-6-Hydroxy-hexahydrofuro[3,2-b]furan-3-yl]oxy}-6-chloro-3H-imidazo[4,5-b]pyridin-5-yl)phenyl]phenyl}methyl)-1-imino-1λ^6,2-thiazolidin-1-one]	0.052
CN=S(=O)(c1ccc(-c2ccc(-c3nc4[nH]c(O[C@@H]5CO[C@H]6[C@@H]5OC[C@H]6O)nc4cc3Cl)cc2)cc1)N(C)C (stereo partly drawn) [Example 15, 4-[4-(2-{[(3R,3aR,6R,6aR)-6-Hydroxy-hexahydrofuro[3,2-b]furan-3-yl]oxy}-6-chloro-3H-imidazo[4,5-b]pyridin-5-yl)phenyl]-N,N,N′-trimethyl-benzenesulfonimidamide]	0.09
CS(=O)(=Nc1cnc(-c2ccc(-c3nc4[nH]c(O[C@@H]5CO[C@H]6[C@@H]5OC[C@H]6O)nc4cc3Cl)cc2)nc1)N1CCCC1 (stereo partly drawn) [Example 16, (3R,3aR,6R,6aR)-6-({6-Chloro-5-[4-(5-{[methyl(oxo)pyrrolidin-1-yl-λ^6-sulfanylidene]-amino}pyrimidin-2-yl)phenyl]-3H-imidazo[4,5-b]pyridin-2-yl}oxy)-hexahydrofuro[3,2-b]furan-3-ol]	0.048
N#CN=S1(=O)CCCN1c1ccc(-c2ccc(-c3nc4[nH]c(O[C@@H]5CO[C@H]6[C@@H]5OC[C@H]6O)nc4cc3Cl)cc2)cc1 (stereo partly drawn) [Example 17, [(2-{4-[4-(2-{[(3R,3aR,6R,6aR)-6-Hydroxy-hexahydrofuro[3,2-b]furan-3-yl]oxy}-6-chloro-3H-imidazo[4,5-b]pyridin-5-yl)phenyl]phenyl}-1-oxo-1λ^6,2-thiazolidin-1-ylidene)amino]carbonitrile]	0.202
CN=S(=O)(NC)c1ccc(-c2ccc(-c3nc4[nH]c(O[C@@H]5CO[C@H]6[C@@H]5OC[C@H]6O)nc4cc3Cl)cc2)cc1 (stereo partly drawn) [Example 18, 4-[4-(2-{[(3R,3aR,6R,6aR)-6-hydroxy-hexahydrofuro[3,2-b]furan-3-yl]oxy}-6-chloro-3H-imidazo[4,5-b]pyridin-5-yl)phenyl]-N,N′-dimethyl-benzenesulfonimidamide]	0.067
CS(=O)(=NCc1ccc(-c2ccc(-c3nc4[nH]c(O[C@@H]5CO[C@H]6[C@@H]5OC[C@H]6O)nc4cc3Cl)cc2)cc1)N1CCCC1 (stereo partly shown) [Example 19]	0.138
